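Assay format: 96-well plates, 48-hour exposure. TGI denotes the concentration required for complete inhibition of growth.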
Key:
Experiment in all cases: DTP human tumour cell line panel, 48 h
RXF 393 renal = tested on: RXF 393 renal
HCT-15 colon = tested on: HCT-15 colon
HS 578T breast = tested on: HS 578T breast
SK-MEL-28 melanoma = tested on: SK-MEL-28 melanoma
NCI-H23 lung = tested on: NCI-H23 lung
UO-31 renal = tested on: UO-31 renal
OVCAR-3 ovarian = tested on: OVCAR-3 ovarian
DU-145 prostate = tested on: DU-145 prostate
IGROV1 ovarian = tested on: IGROV1 ovarian
HL-60(TB) leukemia = tested on: HL-60(TB) leukemia
SNB-75 CNS = tested on: SNB-75 CNS

Row | SMILES | TGI (RXF 393 renal) [µM] | TGI (HCT-15 colon) [µM] | TGI (HS 578T breast) [µM] | TGI (SK-MEL-28 melanoma) [µM] | TGI (NCI-H23 lung) [µM] | TGI (UO-31 renal) [µM] | TGI (OVCAR-3 ovarian) [µM] | TGI (DU-145 prostate) [µM] | TGI (IGROV1 ovarian) [µM] | TGI (HL-60(TB) leukemia) [µM] | TGI (SNB-75 CNS) [µM]
1 | Cc1cc(O)c(C(C)C)cc1N=Cc1ccccc1O | 2.64 | > 59.5 | > 46.4 | 31.4 | 37.9 | 33.7 | 9.7 | 17.4 | 22.4 | 1.89 | 
2 | CC1(C)C2CCC(N)(C2)C1O (stereo unspecified) | > 100 | > 100 |  | > 100 | > 100 | > 100 | > 100 | > 100 | > 100 |  | > 100
3 | O=C1NC2(C=Cc3c(ccc4ccccc34)O2)Oc2ccccc21 (stereo unspecified) | 43.3 | 71.2 |  | > 100 | 92.3 | 9.41 | 59.8 |  | > 100 | 27.4 | 61.4
4 | CN(C)c1ccc(/C=c2/c3cc([N+](=O)[O-])ccc3n3c2cc(-c2ccccc2)[n+]3C)cc1 |  | 42.1 | 7.97 | 3.09 | > 24.2 | 23 | 5.48 | 6.68 | 2.29 | 1.72 | 3.79
5 | Brc1cccc[n+]1-c1ccc2cc(-[n+]3ccccc3Br)ccc2c1 | 87.6 | > 100 | > 100 | > 100 | > 100 | 38.5 | 46.4 | 35.5 | 28 | > 100 | 
6 | C[N+](C)(C)CC1CCCC/C1=N\O (stereo unspecified) | > 100 | > 100 |  | > 100 | > 100 | > 100 | > 100 |  | > 100 | > 100 | 
7 | CC(C)c1cccc(C(C)C)c1OS(=O)(=O)NC(=O)OC(C(F)(F)F)C(F)(F)F |  | > 100 | > 100 | > 100 | > 100 | > 100 |  | > 100 | > 100 | > 100 | 
8 | CC1(C)CC2C(C1=O)C1(C)CCCC2(C)C1=O (stereo unspecified) |  | > 100 | > 100 | > 100 | > 100 | > 100 | > 100 | > 100 | > 100 | > 100 | > 100
9 | COc1ccc(C2C(Cl)C(=O)N2NC(=O)Cc2ccccc2)cc1OC (stereo unspecified) | > 100 | > 100 |  | > 100 | > 100 | > 100 | > 100 |  | > 100 | > 100 | > 100
10 | COC(=O)C1C2CC3C(OC(=O)C31)C2OC(=O)[C@](OC)(c1ccccc1)C(F)(F)F (stereo partly specified) | > 100 | > 100 |  | > 100 | > 100 | > 100 | > 100 |  | > 100 | > 100 | > 100
11 | Cc1ncc([N+](=O)[O-])n1CCNC(=O)CCCCCn1ccnc1[N+](=O)[O-] |  | > 100 | > 100 |  | > 100 | > 100 | > 100 | > 100 | > 100 | > 100 | > 100
12 | O=C1C[C@H](c2ccc(O)c(O)c2)Oc2cc(O)cc(O)c21 | > 100 | > 100 |  | > 100 | > 100 | > 100 | > 100 |  | > 100 | > 100 | > 100
13 | CCCCNC(=S)Nc1nc(C(=O)NNC(=O)c2ccccc2)cs1 |  | 26.1 |  |  |  | 28.5 | 19.7 | 53.4 | 40.6 | > 100 | 72.7
14 | OC1c2ccccc2C(O)C2OC12 (stereo unspecified) | > 100 | > 100 |  | > 100 | > 100 | > 100 | > 100 | > 100 | > 100 | > 100 | 
15 | CC[C@H](C)C1=C(OC(C)=O)[N@+]2([O-])Oc3ccc(-c4c(OC(C)=O)c(OC(C)=O)c(-c5ccc(OC(C)=O)cc5)c(OC(C)=O)c4OC(C)=O)cc3O[C@]2([C@@H](C)CC)C(=O)N1OC(C)=O | > 50 | > 50 |  | > 50 | > 50 | > 50 | 23.4 | > 50 | 27.6 | 21.7 | 39.5
16 | NCCCC[C@H](N)C(=O)Nc1ccc(-c2nc3ccccc3s2)cc1Cl | 27.3 | 20.5 | 51.5 | 23.4 | > 37.6 | 18.3 | 19.2 | 18 | 22.7 |  | 26.8
17 | CCN(CC)CCC(=O)c1ccc(Oc2ccc(F)cc2)cc1 | 30.5 | 36.7 | 60.2 | 30.2 | 45.9 |  | 34.5 | 53.1 | 36 |  | 47.8
18 | O=C1c2cc([N+](=O)[O-])sc2C(=O)c2ccsc21 | 1.05 | 0.815 | 1.85 | 0.555 | 1.15 | 2.59 | 0.209 | 0.674 | 0.878 |  | 2.71
19 | O=[N+]([O-])c1cc(Cl)ccc1S(=O)(=O)N1CCCc2cc(Cl)ccc21 | > 100 | > 100 | > 100 | > 100 |  | > 100 | > 100 | > 100 | > 100 |  | > 100
20 | COc1cc2c(c(OC)c1OC)-c1ccc(SC)cc1C(=O)CC2 | > 100 | > 100 | > 100 | > 100 | > 100 |  | > 100 |  | > 100 | 10.8 | > 100
21 | N=C(c1cccs1)C1(N2CCCCC2)CCCCC1 | 29.5 | 29.7 | > 100 |  | 43.5 | 30.5 | 30.3 | 30.4 | 39.6 | 33.6 | 
22 | COc1ccc(N2C(=O)C3CC4=CC(=O)C[C@H]4[C@H]32)cc1 (stereo partly specified) | > 100 | > 100 | > 100 | > 100 | > 100 | > 100 | > 100 | > 100 |  |  | > 100

— PubChem BioAssay (NCI)
